Experiments:
ABCD2 WT = biological target: T1, ABCD2 WT (Homo sapiens, UniProt Q9UBJ2); test: D2 correction dose-response assay: ABCD2 WT HiBit protein expression; type: cell-based; details: HEK-293/ABCD2 WT cells, 24 hours treatment, HiBit luminescence; class combines EC50 and Mean MaxAct (fold); read-out: ABCD2 WT EC50, Emax
T1 construct: expressed in transfected cells
T1 sequence (Q9UBJ2 1-740): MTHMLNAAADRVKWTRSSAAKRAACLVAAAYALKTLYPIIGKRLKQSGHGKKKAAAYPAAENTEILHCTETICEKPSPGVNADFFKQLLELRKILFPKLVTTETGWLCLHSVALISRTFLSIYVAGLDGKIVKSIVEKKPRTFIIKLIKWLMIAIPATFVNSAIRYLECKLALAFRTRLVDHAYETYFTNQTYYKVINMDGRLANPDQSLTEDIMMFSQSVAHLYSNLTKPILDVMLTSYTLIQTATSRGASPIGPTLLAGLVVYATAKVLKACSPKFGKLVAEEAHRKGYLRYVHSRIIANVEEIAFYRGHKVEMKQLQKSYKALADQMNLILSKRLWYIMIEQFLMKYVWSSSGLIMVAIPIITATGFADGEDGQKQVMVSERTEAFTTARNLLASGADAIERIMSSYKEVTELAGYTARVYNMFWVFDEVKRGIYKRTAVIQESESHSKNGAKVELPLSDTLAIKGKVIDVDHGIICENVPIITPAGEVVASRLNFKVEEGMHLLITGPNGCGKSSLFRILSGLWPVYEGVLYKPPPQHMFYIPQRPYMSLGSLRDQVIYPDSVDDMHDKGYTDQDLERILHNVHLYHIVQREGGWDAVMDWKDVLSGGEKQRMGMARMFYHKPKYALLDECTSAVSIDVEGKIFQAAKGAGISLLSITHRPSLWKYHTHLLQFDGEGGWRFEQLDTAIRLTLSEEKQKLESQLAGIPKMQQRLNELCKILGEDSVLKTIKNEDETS
How it was run: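 HEK-293 cells stably expressing HiBit-tagged human ABCD2 WT were treated with 11 doses (3-fold dilutions, top final 30 μM, 0.3% DMSO) for 24 h at 37 °C. Expression was measured by HiBit lytic luminescence after 1 h at 25 °C, giving EC50 and Emax.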

ABCB4 WT = biological target: T2, ABCB4 WT (Homo sapiens, UniProt P21439); test: ABCB4 WT assay: HiBit protein expression; type: cell-based; details: HEK-293 cells stably expressing HiBit-tagged ABCB4 WT; 24 h treatment; top concentration 30 μM; read-out: ABCB4 WT EC50, Emax
T2 construct: expressed in transfected cells
How it was run: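 HEK-293 cells stably expressing HiBit-tagged human ABCB4 WT, treated 24 h at 37 °C with 11-dose 3-fold dilutions, top final 30 μM in 0.3% DMSO. HiBit lytic reagent luminescence read after 1 h at 25 °C; Emax and EC50 derived.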

T2 sequence (P21439 whole entry): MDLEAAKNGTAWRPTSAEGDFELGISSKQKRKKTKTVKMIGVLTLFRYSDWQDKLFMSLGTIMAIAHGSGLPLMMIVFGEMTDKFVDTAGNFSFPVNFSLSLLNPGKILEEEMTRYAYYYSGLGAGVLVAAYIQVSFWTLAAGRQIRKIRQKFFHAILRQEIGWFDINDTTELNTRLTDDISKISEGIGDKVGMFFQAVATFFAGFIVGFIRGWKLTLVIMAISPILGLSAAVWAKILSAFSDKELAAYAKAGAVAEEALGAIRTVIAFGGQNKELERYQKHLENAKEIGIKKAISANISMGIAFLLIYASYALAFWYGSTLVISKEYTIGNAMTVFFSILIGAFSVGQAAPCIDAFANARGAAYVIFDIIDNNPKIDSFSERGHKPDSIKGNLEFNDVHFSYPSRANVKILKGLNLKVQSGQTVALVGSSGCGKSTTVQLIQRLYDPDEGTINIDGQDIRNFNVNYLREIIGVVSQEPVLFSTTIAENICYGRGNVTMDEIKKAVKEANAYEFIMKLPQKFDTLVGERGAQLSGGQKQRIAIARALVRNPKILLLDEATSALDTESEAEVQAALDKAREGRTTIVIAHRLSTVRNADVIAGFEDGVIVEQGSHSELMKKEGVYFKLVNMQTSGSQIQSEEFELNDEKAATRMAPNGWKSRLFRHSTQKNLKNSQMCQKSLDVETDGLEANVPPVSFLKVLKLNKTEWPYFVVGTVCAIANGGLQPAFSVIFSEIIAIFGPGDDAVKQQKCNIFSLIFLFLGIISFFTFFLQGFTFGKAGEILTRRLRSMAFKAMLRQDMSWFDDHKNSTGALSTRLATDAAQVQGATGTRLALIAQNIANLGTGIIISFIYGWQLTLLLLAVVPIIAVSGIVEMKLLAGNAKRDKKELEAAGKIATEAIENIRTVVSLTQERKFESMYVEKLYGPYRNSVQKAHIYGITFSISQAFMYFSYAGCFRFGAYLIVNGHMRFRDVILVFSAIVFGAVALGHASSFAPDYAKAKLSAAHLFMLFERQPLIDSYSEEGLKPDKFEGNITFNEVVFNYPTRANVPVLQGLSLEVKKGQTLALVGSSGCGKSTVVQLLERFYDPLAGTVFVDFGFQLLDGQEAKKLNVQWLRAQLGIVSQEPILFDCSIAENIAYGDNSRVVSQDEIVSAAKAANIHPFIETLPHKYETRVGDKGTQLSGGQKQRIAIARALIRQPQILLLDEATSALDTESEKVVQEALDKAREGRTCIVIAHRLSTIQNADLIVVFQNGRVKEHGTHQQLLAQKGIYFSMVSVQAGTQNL

Row | Structure (SMILES) | EC50 (ABCD2 WT) | EC50 (ABCB4 WT)
1 | Cc1cc(C)c(Oc2nc(-c3cncc(Cl)c3)ccc2S(=O)(=O)NC(c2ccccn2)C(F)(F)F)c(C)c1 (single isomer, unassigned) [Compound I-79] | 1 to 10 µM | ≥ 25 µM
2 | Cc1cc(C)c(Oc2nc(-c3cncc(Cl)c3)ccc2S(=O)(=O)NC(c2ccccn2)C(F)(F)F)c(C)c1 (single isomer, unassigned) [Compound I-80] | 1 to 10 µM | ≥ 25 µM
3 | Cc1cc(C)c(Oc2nc(-c3cncc(C(N)=O)c3)ccc2NS(C)(=O)=O)c(C2CC2)n1 [Compound I-1] | 1 to 10 µM | ≥ 25 µM
4 | Cc1cc(C)c(Oc2nc(-c3cn[nH]c3)ccc2NS(C)(=O)=O)c(C2CC2)c1 [Compound I-2] | 10 to 25 µM | ≥ 25 µM
5 | Cc1ccc(Oc2nc(-c3cncc(C#N)c3)ccc2NS(C)(=O)=O)c(C)n1 [Compound I-3] | 1 to 10 µM | < 1 µM
6 | Cc1cc(C)c(Oc2nc(-c3cncc(Cl)c3)ccc2N(C2CC2)S(C)(=O)=O)c(C)c1 [Compound I-42] | 1 to 10 µM | ≥ 25 µM
7 | Cc1cc(C)c(Oc2nc(N3CC4(C3)CN(S(=O)(=O)C3CC3)C4)ccc2NS(C)(=O)=O)c(C)c1 [Compound I-43] | > 25 µM | ≥ 25 µM
8 | Cc1cc(C)c(Oc2nc(N3CCN(S(=O)(=O)C4CC4)CC3)ccc2NS(C)(=O)=O)c(C)c1 [Compound I-44] | 10 to 25 µM | ≥ 25 µM
9 | Cc1cc(C)c(Oc2nc(-c3ccc(C#N)nc3)ccc2NS(C)(=O)=O)c(C)c1 [Compound I-45] | < 1 µM | ≥ 25 µM
10 | Cc1cc(C)c(Oc2nc(-c3cncc(Cl)c3)ccc2NS(C)(=O)=O)c(C)n1 [Compound I-46] | < 1 µM | < 25 µM
11 | Cc1cc(C)c(Oc2nc(N3CCN(C(=O)C4CC4)CC3)ccc2NS(C)(=O)=O)c(C)c1 [Compound I-47] | 1 to 10 µM | < 1 µM
12 | Cc1cc(C)c(Oc2nc(-c3cncc(Cl)c3)ccc2N(C)S(C)(=O)=O)c(C)c1 [Compound I-48] | < 1 µM | < 1 µM
13 | Cc1cc(C)c(Oc2nc(-c3cncc(Cl)c3)ccc2NS(=O)(=O)C2CC2)c(C)c1 [Compound I-49] | > 25 µM | < 1 µM
14 | CC(=O)NC1CN(c2ccc(NS(=O)(=O)c3cccnc3)c(Oc3c(C)cc(C)cc3C3CC3)n2)C1 [Compound I-50] | > 25 µM | 1 to 10 µM
15 | COC1CC(S(=O)(=O)Nc2ccc(-c3cncc(Cl)c3)nc2Oc2c(C)cc(C)cc2C)C1 (stereo not shown) [Compound I-51] | > 25 µM | < 1 µM
16 | Cc1cc(C)c(Oc2nc(-c3cncc(Cl)c3)ccc2N(C)S(=O)(=O)c2cnn(C)c2)c(C2CC2)c1 [Compound I-52] | < 1 µM | 1 to 10 µM
17 | Cc1cc(C)c(Oc2nc(-c3cncc(Cl)c3)ccc2N(C)S(=O)(=O)c2cccnc2)c(C2CC2)c1 [Compound I-53] | > 25 µM | ≥ 25 µM
18 | Cc1cc(C)c(Oc2nc(-c3cncc(Cl)c3)ccc2NS(=O)(=O)c2cccnc2)c(C2CC2)c1 [Compound I-54] | 1 to 10 µM | ≥ 25 µM
19 | Cc1cc(C)c(Oc2nc(-c3cncc(Cl)c3)ccc2NS(C)(=O)=O)c(C)c1 [Compound I-55] | < 1 µM | ≥ 25 µM
20 | Cc1cc(C)c(Oc2cc(-c3cncc(Cl)c3)ncc2NS(C)(=O)=O)c(C)c1 [Compound I-56] | 1 to 10 µM | ≥ 25 µM
21 | Cc1cc(C)c(Oc2nc(-c3cncc(Cl)c3)ccc2NS(C)(=O)=O)c(C2CC2)c1 [Compound I-57] | < 1 µM | < 25 µM
22 | Cc1cc(C)c(Oc2nc(-c3cncc(Cl)c3)ccc2NS(=O)(=O)c2cnn(C)c2)c(C2CC2)c1 [Compound I-58] | > 25 µM | ≥ 25 µM

Row | Structure (SMILES) | EC50 (ABCD2 WT) | EC50 (ABCB4 WT)
23 | Cc1cc(C)c(Oc2cc(-c3cncc(Cl)c3)cnc2N(C)S(=O)(=O)c2cnn(C)c2)c(C)c1 [Compound I-59] | 1 to 10 µM | ≥ 25 µM
24 | Cc1cc(C)c(Oc2cc(-c3cncc(Cl)c3)cnc2NS(C)(=O)=O)c(C)c1 [Compound I-60] | 1 to 10 µM | ≥ 25 µM
25 | Cc1cc(C)c(Oc2cc(-c3cncc(Cl)c3)cnc2NS(=O)(=O)c2cnn(C)c2)c(C)c1 [Compound I-61] | 1 to 10 µM | ≥ 25 µM
26 | Cc1cc(C)c(Oc2nc(-c3cncc(Cl)c3)ccc2NS(=O)(=O)Cc2ccccn2)c(C)c1 [Compound I-62] | < 1 µM | ≥ 25 µM
27 | COc1ccc2nc[nH]c2c1S(=O)(=O)Nc1ccc(-c2cncc(Cl)c2)nc1Oc1c(C)cc(C)cc1C [Compound I-63] | > 25 µM | ≥ 25 µM
28 | Cc1cc(C)c(Oc2nc(-c3cncc(Cl)c3)ccc2N(C)S(=O)(=O)Cc2ccccc2)c(C)c1 [Compound I-64] | 1 to 10 µM | < 25 µM
29 | Cc1cc(C)c(Oc2nc(-c3cncc(Cl)c3)ccc2NS(=O)(=O)Cc2ccccc2)c(C)c1 [Compound I-65] | > 25 µM | ≥ 25 µM
30 | Cc1cc(C)c(Oc2nc(-c3cncc(Cl)c3)ccc2N2CCCCS2(=O)=O)c(C)c1 [Compound I-66] | 10 to 25 µM | ≥ 25 µM
31 | Cc1cc(C)c(Oc2nc(-c3cncc(Cl)c3)ccc2N2CCCS2(=O)=O)c(C)c1 [Compound I-67] | 1 to 10 µM | 1 to 10 µM
32 | Cc1cc(C)c(Oc2nc(-c3cncc(Cl)c3)ccc2NS(=O)(=O)C(C)(C)C)c(C)c1 [Compound I-68] | > 25 µM | ≥ 25 µM
33 | Cc1cc(C)c(Oc2nc(-c3cncc(Cl)c3)ccc2N(C)S(=O)(=O)c2cccnc2)c(C)c1 [Compound I-69] | > 25 µM | < 25 µM
34 | Cc1cc(C)c(Oc2nc(-c3cncc(Cl)c3)ccc2N(C)S(=O)(=O)c2cnn(C)c2)c(C)c1 [Compound I-70] | < 1 µM | ≥ 25 µM
35 | Cc1cc(C)c(Oc2nc(-c3cncc(Cl)c3)ccc2NS(=O)(=O)c2cccnc2)c(C)c1 [Compound I-71] | < 25 µM | ≥ 25 µM
36 | Cc1cc(C)c(Oc2nc(-c3cncc(Cl)c3)ccc2NS(=O)(=O)c2cnn(C)c2)c(C)c1 [Compound I-72] | < 1 µM | ≥ 25 µM
37 | CNS(=O)(=O)c1ccc(N2CCN(C(=O)C3CC3)CC2)nc1Oc1c(C)cc(C)cc1C [Compound I-73] | 1 to 10 µM | < 1 µM
38 | COC1CC(NS(=O)(=O)c2ccc(-c3cncc(Cl)c3)nc2Oc2c(C)cc(C)cc2C2CC2)C1 (stereo not shown) [Compound I-74] | < 25 µM | 1 to 10 µM
39 | Cc1cc(C)c(Oc2nc(-c3cncc(Cl)c3)ccc2S(=O)(=O)Nc2cnn(C)c2)c(C2CC2)c1 [Compound I-75] | < 25 µM | 1 to 10 µM
40 | Cc1cc(C)c(Oc2nc(-c3cncc(Cl)c3)ccc2S(=O)(=O)NCc2ccccn2)c(C2CC2)c1 [Compound I-76] | 1 to 10 µM | 1 to 10 µM
41 | CNS(=O)(=O)c1ccc(-c2cncc(Cl)c2)nc1Oc1c(C)cc(C)cc1C1CC1 [Compound I-77] | < 1 µM | 1 to 10 µM
42 | COC1CC(NS(=O)(=O)c2ccc(-c3cncc(Cl)c3)nc2Oc2c(C)cc(C)cc2C)C1 (stereo not shown) [Compound I-78] | 1 to 10 µM | < 25 µM
43 | Cc1cc(C)c(Oc2nc(-c3cncc(Cl)c3)ccc2S(=O)(=O)N[C@H](c2ccccc2)C(F)(F)F)c(C)c1 [Compound I-81] | 1 to 10 µM | < 25 µM
44 | Cc1cc(C)c(Oc2nc(-c3cncc(Cl)c3)ccc2S(=O)(=O)N[C@@H](c2ccccc2)C(F)(F)F)c(C)c1 [Compound I-83] | 1 to 10 µM | ≥ 25 µM
